Experimental data from patent US20040266814A1, “Imidazopyridine compounds having 5-HT4 receptor agonistic activity and 5-HT3 receptor antagonistic activity” (Pfizer Inc, priority 2003, published 2004).
Structures can show the parent of a compound that is named as a salt.

Columns and labels:
[1] = molecular target: T1, rat 5-HT3 receptors (Rattus norvegicus, UniProt P35563); assay: Rat 5-HT3 receptor binding ([3H]-BRL 43694, rat cortical membranes); conditions: read-out: r5HT3 Binding Ki
T1 construct: Cerebral cortical tissues were removed from male Sprague-Dawley (SD) rats; from tissue; host or cells: cerebral cortex of male Sprague-Dawley rats (membranes)
T1 sequence (P35563 24-483): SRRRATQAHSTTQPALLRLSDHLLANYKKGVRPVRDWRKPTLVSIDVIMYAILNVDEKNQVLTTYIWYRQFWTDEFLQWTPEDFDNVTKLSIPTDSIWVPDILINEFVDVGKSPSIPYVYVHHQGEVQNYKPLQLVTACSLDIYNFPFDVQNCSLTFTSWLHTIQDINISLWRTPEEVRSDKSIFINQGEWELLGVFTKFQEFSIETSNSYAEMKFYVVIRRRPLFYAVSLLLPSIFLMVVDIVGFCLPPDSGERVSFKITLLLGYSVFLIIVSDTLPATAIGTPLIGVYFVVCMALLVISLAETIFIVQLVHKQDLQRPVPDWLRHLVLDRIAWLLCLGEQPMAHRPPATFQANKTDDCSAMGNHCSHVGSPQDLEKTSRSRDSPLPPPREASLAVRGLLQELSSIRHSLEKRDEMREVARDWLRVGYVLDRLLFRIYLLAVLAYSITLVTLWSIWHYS
Experimental: Cerebral cortical tissues were removed from male Sprague-Dawley (SD) rats (Japan SLC), weighed and placed in 10 volumes of 50 mM ice-cold Tris-HCl (pH 7.5). This was homogenized in a Polytron homogenizer (30 sec at full speed) and subsequently centrifuged at 48,000 g and 4° C. for 15 min. The resulting pellet was resuspended in 50 mM ice-cold Tris-HCl, homegenized and centrifuged again in the same way. The final pellet was resuspended in an appropriate volume of 50 mM Tris-HCl, dispensed into aliquots and stored at −80° C. until use.
The protein concentrations of homogenates were determined by Bradford method or BCA protein method (Pierce) with BSA as a standard.
Affinity of compounds for pig or bovine 5-HT4 and rat 5-HT3 receptors were assessed with using radiolabeled specific ligands, GR 113808 ({1-[2-(methylsulfonyl)ethyl]-4-piperidinyl} [methyl-^3H]-1H-indole-3-carboxylate) and BRL 43694 (1-Methyl-N-(9-[methyl-^3H]-9-azabicyclo [3.3.1]non-3-yl)-1H-indazole-3-caboxamide). Compounds were incubated with 25-100 pM of [^3H]-GR 113808 (Amersham) and 0.6-1 mg protein of pig or bovine striatal membranes suspended in a final volume of 0.8-1 ml of 50 mM Tris-HCl (pH 7.5). Nonspecific binding was determined with 10-50 μM 5-HT. The binding of 0.3 nM [^3H]-BRL 43694 (NEN) was measured using 400 μg protein of rat cortical membranes suspended in a final volume of 500 μl of 50 mM Tris-HCl (pH 7.5)., Nonspecific binding was determined with 10 μM 5-HT.
The plates were incubated at room temperature on a plate shaker for 30 min. The assays were stopped by rapid filtration using a Brandell cell harvester through Wallac-B filters pre-soaked in 0.2% poly(ethylenimine) at 4° C. for 60-90 min. The filters were washed three times with 1 ml of ice-cold 50 mM HEPES, and were dried in a microwave or at room temperature. They were bagged and heated with meltilex scintillant (Wallac) or soaked in BetaplateScint (Wallac). Receptor-bound radioactivity was quantified using Big-spot counter, Betaplate counter (Wallac) or LS counter (Packard).

[2] = molecular target: T2, Human 5-HT4(d) transfected HEK293 cells (Homo sapiens, UniProt Q13639); assay: Agonist-induced cAMP elevation in human 5-HT4(d) transfected HEK293 cells; assay type: cell-based; conditions: for Emax: HEK293, normalized to cAMP produced by 1000 nM serotonin, read-out: cAMP 5HT4 function Emax; for EC50: human 5-HT4(d) transfected HEK293 cells, read-out: cAMP 5HT4 function; for cAMP 5HT4 function, verdict in words: table remark in brackets
T2 construct: expressed in transfected cells; host or cells: HEK293
T2 sequence (Q13639 1-360 isoform Q13639-3): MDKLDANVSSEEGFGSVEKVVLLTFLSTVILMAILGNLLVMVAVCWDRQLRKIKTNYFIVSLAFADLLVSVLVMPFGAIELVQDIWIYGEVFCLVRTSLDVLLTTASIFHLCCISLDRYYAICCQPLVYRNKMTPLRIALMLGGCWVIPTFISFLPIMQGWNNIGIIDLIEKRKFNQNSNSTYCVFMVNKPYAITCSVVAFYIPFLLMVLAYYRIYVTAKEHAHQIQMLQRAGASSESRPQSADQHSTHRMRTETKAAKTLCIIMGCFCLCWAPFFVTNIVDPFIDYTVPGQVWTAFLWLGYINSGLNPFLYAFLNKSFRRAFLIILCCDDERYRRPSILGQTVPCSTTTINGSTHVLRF
Experimental: Agonist-Induced cAMP Elevation in Human 5-HT4(d) Transfected HEK293 Cells
Human 5-HT4(d) transfected HEK293 cells were established in-house. The cells were grown at 37° C. and 5% CO2 in DMEM supplemented with 10% FCS, 20 mM HEPES (pH 7.4), 200 μg/ml hygromycin B (Gibco), 100 units/ml penicillin and 100 μg/ml streptomycin.
The cells were grown to 60-80% confluence. On the previous day before treatment with compounds dialyzed FCS (Gibco) was substituted for normal and the cells were incubated overnight.
Compounds were prepared in 96-well plates (12.5 μl/well). The cells were harvested with PBS/1 mM EDTA, centrifuged and washed with PBS. At the beginning of the assay, cell pellet was resuspended in DMEM supplemented with 20 mM HEPES, 10 μM pargyline (Sigma) and 1 mM 3-isobutyl-1-methylxanthine (Sigma) at the concentration of 1.6×10^5 cells/ml and left for 15 minutes at room temperature. The reaction was initiated by addition of the cells into plates (12.5 μl/well). After incubation for 15 minutes at room temperature, 1% Triton X-100 was added to stop the reaction (25 μl/well) and the plates were left for 30 minutes at room temperature. Homogenous time-resolved fluorescence-based cAMP (Schering) detection was made according to the manufacturer's instruction. ARVOsx multilabel counter (Wallac) was used to measure HTRF (excitation 320 nm, emission 665 nm/620 nm, delay time 50 μs, window time 400 μs).
Data was analyzed based on the ratio of fluorescence intensity of each well at 620 nm and 665 nm followed by cAMP quantification using cAMP standard curve. Enhancement of cAMP production elicited by each compound was normalized to the amount of cAMP produced by 1000 nM serotonin (Sigma).

[3] = molecular target: T3, Human 5-HT4(d) (Homo sapiens, UniProt Q13639); assay: Human 5-HT4 binding ([3H]-GR113808, SPA); conditions: human 5-HT4(d) HEK293 membranes, read-out: h5HT4 Ki
T3 construct: expressed in transfected cells; host or cells: HEK293
T3 sequence (Q13639 1-360 isoform Q13639-3): as above
Experimental: Human S-HT4(d) transfected HEK293 cells were prepared and grown in-house. The collected cells were suspended in 50 mM HEPES (pH 7.4 at 4° C.) supplemented with protease inhibitor cocktail (Boehringer, 1:1000 dilution) and homogenized using a hand held Polytron PT 1200 disruptor set at full power for 30 sec on ice. The homogenates were centrifuged at 40,000×g at 4° C. for 30 min. The pellets were then resuspended in 50 mM HEPES (pH 7.4 at 4° C.) and centrifuged once more in the same manner. The final pellets were resuspended in an appropriate volume of 50 mM HEPES (pH 7.4 at 25° C.), homogenized, aliquoted and stored at −80° C. until use. An aliquot of membrane fractions was used for protein concentration determination using BCA protein assay kit (PIERCE) and ARVOsx plate reader (Wallac).
For the binding experiments, 25 μl of test compounds were incubated with 25 μl of [^3H]-GR113808 (Amersham, final 0.2 nM) and 150 μl of membrane homogenate and WGA-SPA beads (Amersham) suspension solutions (10 μg protein and 1 mg SPA beads/well) for 60 minutes at room temperature. Nonspecific binding was determined by 1 μM GR113808 (Tocris) at the final concentration. Incubation was terminated by centrifugation at 1000 rpm. Receptor-bound radioactivity was quantified by counting with MicroBeta plate counter (Wallac).

[4] = molecular target: T4, 5-HT3 (Cavia porcellus, UniProt O70212); assay: 5-HT3 antagonist assay in guinea-pig longitudinal muscle-myenteric plexus (LMMP)
T4 construct: 5-HT3 antagonist assay in guinea-pig longitudinal muscle-myenteric plexus (LMMP); from tissue; host or cells: guinea-pig longitudinal muscle-myenteric plexus (LMMP)
T4 sequence (O70212 20-490): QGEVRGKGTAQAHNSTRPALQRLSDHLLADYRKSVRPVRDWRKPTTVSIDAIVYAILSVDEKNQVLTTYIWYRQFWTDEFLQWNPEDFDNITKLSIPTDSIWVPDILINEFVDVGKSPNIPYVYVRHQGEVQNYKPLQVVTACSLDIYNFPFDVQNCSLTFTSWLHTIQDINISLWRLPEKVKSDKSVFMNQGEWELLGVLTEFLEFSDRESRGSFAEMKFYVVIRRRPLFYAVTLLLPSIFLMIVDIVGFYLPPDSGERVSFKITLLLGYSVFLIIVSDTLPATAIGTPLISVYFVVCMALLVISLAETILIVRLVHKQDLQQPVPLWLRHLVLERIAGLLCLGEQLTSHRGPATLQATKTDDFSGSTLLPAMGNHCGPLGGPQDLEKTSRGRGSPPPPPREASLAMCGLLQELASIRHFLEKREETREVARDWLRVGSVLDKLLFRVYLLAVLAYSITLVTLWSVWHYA
Experimental: 5-HT3 Functional Assay Method
5-HT3 antagonist assay in guinea-pig longitudinal muscle-myenteric plexus (LMMP): The LMMP tissues were prepared according to the method of A. Butler et al. (Br. J. Pharmacology, 101: 591-598, 1990) and their 5-HT4 receptors were desensitized by performing in 10 μM of 5-methoxytryptamine-containing Krebs solution. Non-cumulative concentration-effect curves (CECs) to 5-HT were constructed across the range […] in half-log unit increments. After 60-minute-equilibration with antagonists, 2nd CECs to 5-HT were constructed until 1 mM.

Row | SMILES | Ki [1] | melting point | 5HT4 receptor agonistic activity [2] | Emax [2] | EC50 [2] | cAMP 5HT4 function, verdict in words [2] | Ki [3] | LMMP 5HT3 function pA ([4]; antagonism of 5-HT) | Kb ([4]; read-out: pA2 (5HT3 antagonistic functional activity) (converted)) | cAMP 5HT4 function, % @1000 ([2]; @1000 [nM], normalized to 1000 nM serotonin)
1 | CN(C)C1(CCNC(=O)c2cc(Cl)cn3ccnc23)CCCCC1 | 785 nM |  |  |  |  |  |  |  |  | 
2 | Cc1cn2c(N)c(Cl)cc(C(=O)NCC3CCNCC3)c2n1 (as salt: hydrochloride) [Example 1, 5-AMINO-6-CHLORO-2-METHYL-N-(PIPERIDIN-4-YLMETHYL)-IMIDAZO[1,2-a]PYRIDINE-8-CARBOXAMIDE] |  | 237 °C |  |  |  |  |  |  |  | 
3 | O=C(NC1CN2CCC1CC2)c1cc(Cl)cn2ccnc12 (centres unmarked) [C] | 6 nM |  | inactive | 11% | 2660 nM | inactive |  |  |  | 
4 | Cc1cn2c(N)c(Cl)cc(C(=O)NCC3CCNCC3)c2n1 [Example 1, 5-AMINO-6-CHLORO-2-METHYL-N-(PIPERIDIN-4-YLMETHYL)-IMIDAZO[1,2-a]PYRIDINE-8-CARBOXAMIDE] | 26 nM |  |  | 88% | 13.6 nM |  | 58 nM |  |  | 
5 | CCc1cn2c(N)c(Cl)cc(C(=O)NCC3CCNCC3)c2n1 [Example 2, 5-AMINO-6-CHLORO-2-ETHYL-N-(PIPERIDIN-4-YLMETHYL)IMIDAZO[1,2-a]PYRIDINE-8-CARBOXAMIDE] | 48 nM | 153 °C |  | 58% | 40 nM |  | 109 nM | 6.6 | 251 nM | 
6 | CCCCN1CCC(CNC(=O)c2cc(Cl)cn3ccnc23)CC1 [compound B] | 4300 nM |  | inactive |  |  | inactive | 1.1 nM |  |  | 0%
